Legend:
[1] = Capsule perfume leakage in heavy-duty liquid (HDL) detergent, headspace SPME GC/MS; type: physicochemical
Experimental: The testing of capsule leakage in liquid compositions (e.g., liquid fabric enhancer/“LFE” compositions and/or heavy-duty liquid/“HDL” detergents) is performed as follows. […] The 1 gram aliquot in the 7 ml vial is then mixed on a stirring plate for 24 h at 500 rpm, thereby ensuring that the capsules are broken by the grinding action of the stir bar against the bottom of the 7 ml vial. Optical microscopy can be used to verify that no more intact capsules remain. In case such capsules are found, the step is to repeated for an additional 24 h, or until all or almost all capsules are broken. Then, the formulation containing broken capsules is introduced into GC vials in a similar manner as for step (a). This yields total oil samples. It is to be noted that the capsule sample and the total oil sample are not analyzed on the same day, as there is a need to prepare the total oil sample after the capsule sample has been removed from storage. […] The perfume oil composition formulated herein is representative of the perfume oil composition that is present in the slurry. Then the free oil formulation is introduced into GC vials in a similar manner as for step (a). This yields reference samples, which must be used when analyzing both the capsule sample and the total oil sample. […] Two headspace vials are prepared for each sample. The sealed headspace vials are then allowed to equilibrate. […] After equilibrating, the samples are analyzed by GC/MS. […] The perfume composition is analyzed by fast GC/MS in full scan mode. Ion extraction of the specific mass for each component is obtained. The leakage is calculated as follows, separately for the capsule sample and total oil sample, where “Area” denotes the area under the chromatogram peak corresponding to the PRM of interest: Once calculated for all PRMs for both the total oil sample and the capsule sample, the corrected PRM leakage can be calculated using the following formula: Once the corrected PRM leakage has been calculated for all PRMs, the Average leakage can be found by taking the arithmetic mean of each corrected PRM leakage. […] The resulting products are stored for one week at 35° C. At the end of the storage period, samples of each product composition are analyzed for perfume leakage out of the capsule using headspace analysis. The data is reported as a percentage, determined by comparing the amount of the individual perfume raw materials found in the headspace to the amount originally provided to the capsules.

[2] = Capsule perfume leakage in liquid fabric enhancer (LFE), headspace SPME GC/MS; type: physicochemical
Experimental: The testing of capsule leakage in liquid compositions (e.g., liquid fabric enhancer/“LFE” compositions and/or heavy-duty liquid/“HDL” detergents) is performed as follows. […] The 1 gram aliquot in the 7 ml vial is then mixed on a stirring plate for 24 h at 500 rpm, thereby ensuring that the capsules are broken by the grinding action of the stir bar against the bottom of the 7 ml vial. Optical microscopy can be used to verify that no more intact capsules remain. In case such capsules are found, the step is to repeated for an additional 24 h, or until all or almost all capsules are broken. Then, the formulation containing broken capsules is introduced into GC vials in a similar manner as for step (a). This yields total oil samples. It is to be noted that the capsule sample and the total oil sample are not analyzed on the same day, as there is a need to prepare the total oil sample after the capsule sample has been removed from storage. […] The perfume oil composition formulated herein is representative of the perfume oil composition that is present in the slurry. Then the free oil formulation is introduced into GC vials in a similar manner as for step (a). This yields reference samples, which must be used when analyzing both the capsule sample and the total oil sample. […] Two headspace vials are prepared for each sample. The sealed headspace vials are then allowed to equilibrate. Samples reach equilibrium after 3 hours at room temperature, but can be left to sit longer without detriment or change to the results, up until 24 hours after sealing the headspace vial. After equilibrating, the samples are analyzed by GC/MS. […] The perfume composition is analyzed by fast GC/MS in full scan mode. Ion extraction of the specific mass for each component is obtained. The leakage is calculated as follows, separately for the capsule sample and total oil sample, where “Area” denotes the area under the chromatogram peak corresponding to the PRM of interest: Once calculated for all PRMs for both the total oil sample and the capsule sample, the corrected PRM leakage can be calculated using the following formula: Once the corrected PRM leakage has been calculated for all PRMs, the Average leakage can be found by taking the arithmetic mean of each corrected PRM leakage. […] The resulting products are stored for one week at 35° C. At the end of the storage period, samples of each product composition are analyzed for perfume leakage out of the capsule using headspace analysis. The data is reported as a percentage, determined by comparing the amount of the individual perfume raw materials found in the headspace to the amount originally provided to the capsules.

[3] = PRM of Perfume 1 out of Comparative Example 5-1 capsules (polyacrylate shell)
[4] = PRM of Perfume 1 out of Comparative example 5-2 capsules (per EP2500087B1)
[5] = PRM of Perfume 1 out of Comparative example 5-3 capsules (per WO2010013250A2)
[6] = PRM of Perfume 1 out of Example 5-1 capsules (silica shell)
[7] = PRM of Perfume 1 out of Comparative Example 4-1 capsules (polyacrylate shell), LFE Composition 1, 0.25 wt % perfume
[8] = PRM of Perfume 1 out of Comparative Example 6-1 capsules (no second shell component), LFE Composition 1
[9] = PRM of Perfume 1 out of Comparative Example 10-1 capsules (per EP2500087B1), LFE Composition 1
[10] = PRM of Perfume 1 out of Comparative Example 10-2 capsules (per WO2010013250A2, with IPM), LFE Composition 1
[11] = PRM of Perfume 1 out of Example 2, Sample A capsules, LFE Composition 1 (Ester Quat 1)
[12] = PRM of Perfume 1 out of Example 2, Sample A capsules, LFE Composition 2 (Ester Quat 2)
[13] = PRM of Perfume 1 out of Example 2, Sample A capsules, LFE Composition 3 (Ester Quat 3)
[14] = PRM of Perfume 1 out of Example 4-1 capsules (silica shell), LFE Composition 1, 0.25 wt % perfume
[15] = PRM of Perfume 1 out of Example 6-1 capsules (w/ second shell component), LFE Composition 1
[16] = PRM of Perfume 1 out of Example 10-1 capsules (Sample F, Perfume 1/IPM 40/60), LFE Composition 1
[17] = PRM of Perfume 1 out of Example 10-2 capsules (Sample A), LFE Composition 1
[18] = PRM of Perfume 3 out of Capsule Sample D, LFE Composition 1
[19] = PRM of Perfume 2 out of Capsule Sample C, LFE Composition 1

Compound | Leakage (as %) after 1 week at 35° C. [1, 3] [%] | Leakage (as %) after 1 week at 35° C. [1, 4] [%] | Leakage (as %) after 1 week at 35° C. [1, 5] [%] | Leakage (as %) after 1 week at 35° C. [1, 6] [%] | Leakage (as %) after 1 week at 35° C. [2, 7] [%] | Leakage (as %) after 1 week at 35° C. [2, 8] [%] | Leakage (as %) after 1 week at 35° C. [2, 9] [%] | Leakage (as %) after 1 week at 35° C. [2, 10] [%] | Leakage (as %) after 1 week at 35° C. [2, 11] [%] | Leakage (as %) after 1 week at 35° C. [2, 12] [%] | Leakage (as %) after 1 week at 35° C. [2, 13] [%] | Leakage (as %) after 1 week at 35° C. [2, 14] [%] | Leakage (as %) after 1 week at 35° C. [2, 15] [%] | Leakage (as %) after 1 week at 35° C. [2, 16] [%] | Leakage (as %) after 1 week at 35° C. [2, 17] [%] | Leakage (as %) after 1 week at 35° C. [2, 18] [%] | Leakage (as %) after 1 week at 35° C. [2, 19] [%] | further results
CC=CC(=O)C1C(C)C=CCC1(C)C (centres unmarked) [1-(2,6,6-trimethyl-1-cyclohex-3-enyl)but-2-en-1-one] | – | – | – | – | – | – | – | – | – | – | – | – | – | – | – | 5 | 4 | –
C=CCCC(=O)C1=CCCC(C)(C)C1 [1-(5,5-dimethyl-1-cyclohexenyl)pent-4-en-1-one] | – | – | – | – | – | – | – | – | – | – | – | – | – | – | – | 2 | 2 | –
CC1=CC(C)C(C=O)CC1 (centres unmarked) [2,4-dimethylcyclohex-3-ene-1-carbaldehyde] | 12 | 104 | 101 | 31 | 31 | 94 | 94 | 96 | 2.1 | 1.1 | 1.6 | 7 | 8 | 22 | 8 | – | 12 | –
CC(=O)C(C)=CC1C(C)=CCCC1(C)C (centres unmarked) [3-Methyl-4-(2,6,6-trimethyl-2cyclohexen-1-yl)-3-buten-2-one] | – | – | – | – | – | – | – | – | – | – | – | – | – | – | – | 6 | – | –
CCC(=O)OC1C=CC2C3CCC(C3)C12 (centres unmarked) [3a,4,5,6,7,7a-hexahydro-1H-4,7-methanoinden-1-yl propanoate] | – | – | – | – | – | – | – | – | – | – | – | – | – | – | – | – | 4 | –
CC(=O)/C=C/C1C(C)=CCCC1(C)C (stereo not drawn) [Alpha-ionone] | – | – | – | – | – | – | – | – | – | – | – | – | – | – | – | – | – | Leakage (as %) after 1 week at 35° C. ([2]; PRM of Perfume 4 out of Comparative Example 9-1 capsules (per EP3078415A), LFE Composition 1): 58%; Leakage (as %) after 1 week at 35° C. ([2]; PRM of Perfume 4 out of Comparative Example 9-2 capsules (per EP3078415A, additional TEOS), LFE Composition 1): 69%; Leakage (as %) after 1 week at 35° C. ([2]; PRM of Perfume 4 out of Example 9-1 capsules (Sample E), LFE Composition 1): 15%

The next lines start with results.

Leakage (as %) after 1 week at 35° C. [1, 3] [%] | Leakage (as %) after 1 week at 35° C. [1, 4] [%] | Leakage (as %) after 1 week at 35° C. [1, 5] [%] | Leakage (as %) after 1 week at 35° C. [1, 6] [%] | Leakage (as %) after 1 week at 35° C. [2, 7] [%] | Leakage (as %) after 1 week at 35° C. [2, 8] [%] | Leakage (as %) after 1 week at 35° C. [2, 9] [%] | Leakage (as %) after 1 week at 35° C. [2, 10] [%] | Leakage (as %) after 1 week at 35° C. [2, 11] [%] | Leakage (as %) after 1 week at 35° C. [2, 12] [%] | Leakage (as %) after 1 week at 35° C. [2, 13] [%] | Leakage (as %) after 1 week at 35° C. [2, 14] [%] | Leakage (as %) after 1 week at 35° C. [2, 15] [%] | Leakage (as %) after 1 week at 35° C. [2, 16] [%] | Leakage (as %) after 1 week at 35° C. [2, 17] [%] | Leakage (as %) after 1 week at 35° C. [2, 18] [%] | Leakage (as %) after 1 week at 35° C. [2, 19] [%] | Compound | further results
1 | 105 | 102 | 31 | 4 | 5 | 89 | 92 | 1.6 | 0.8 | 1.0 | 8 | 9 | 19 | 9 | 8 | – | CC(=O)O[C@@H]1C[C@H]2CC[C@]1(C)C2(C)C (racemic) [iso-Bornyl acetate] | –
1 | 105 | 101 | 33 | 4 | 5 | 91 | 92 | 2.2 | 1.1 | 1.3 | 10 | 11 | 20 | 11 | – | – | CC(=O)OC1CCCCC1C(C)(C)C (centres unmarked) [(2-tert-butylcyclohexyl) acetate] | –
0 | 108 | 100 | 27 | 3 | 4 | 85 | 91 | 0.1 | 0.1 | 0.7 | 6 | 7 | 15 | 7 | – | – | CC(=O)OC1CCC(C(C)(C)C)CC1 (centres unmarked) [(4-tert-butylcyclohexyl) acetate] | –
– | – | – | – | – | – | – | – | – | – | – | – | – | – | – | 9 | – | C=CCOC(=O)CCCCC [Allyl caproate] | –
– | – | – | – | – | – | – | – | – | – | – | – | – | – | – | 4 | – | CC(C)=CCCC(C)CCO (centres unmarked) [Citronellol] | –
– | – | – | – | – | – | – | – | – | – | – | – | – | – | – | – | 4 | c1ccc(Oc2ccccc2)cc1 [Diphenyl oxide] | –

Source: patent US12630785B2, “Liquid fabric care compositions comprising capsules” (The Procter & Gamble Company, priority 2020, dated 2026)
